{"source": "patent US4315928A", "about": "“N-Aminosulfenyl carbamate compounds, compositions and use” (priority 1975, dated 1982)", "key": {"in vivo": {"experiment": "in vivo", "conditions": "rat, in vivo, po", "protocol": "These compositions were also evaluated to determine their peroral toxicity to mammals by conventional methods. The animal selected for this experiment was the rat."}, "cotton": {"test_system": "cotton", "experiment": "Phytotoxicity Test, cotton", "type": "in vivo", "design": "key: A rating of 1 indicates no perceptible injury; ratings of 2, 3 and 4 indicate intermediate degrees of injury; ratings of 2, 3 and 4 indicate intermediate degrees of injury; ratings of 2, 3 and 4 indicate intermediate degrees of injury; 5 indicates the plant was dead", "conditions": "ten days", "protocol": "(§1) Suspensions of the test compounds were prepared by dissolving one gram of compound in 50 milliliters of acetone in which had been dissolved 0.1 gram (10 percent of the weight of compound) of an alkylphenoxy polyethoxyethanol surfactant, as an emulsifying or dispersing agent. The resulting solution was mixed into 150 milliliters of water to give roughly 200 milliliters of a suspension containing the compound in finely divided form. The thus-prepared stock suspension contained 0.5 percent by weight of compound. The test concentrations in parts per million by weight employed in the tests described hereinbelow were obtained by appropriate dilutions of the stock suspension with water. The test procedures were as follows:\n(§2) Experiments were also conducted to determine the phytotoxicity of representative compositions with respect to healthy fresh plants. Solutions of the compounds were prepared as described above to provide a concentration of 2500 parts per million of the test compound. The test plants were sprayed in accordance with the procedure described above for the Mite Foliage Spray Test so as to deliver approximately 100 milliliters of test solution to the leaves of each plant tested. The sprayed plants and controls were set aside for approximately one hour to allow the solutions to dry and were then placed in the greenhouse. After ten days the plants were visually inspected to determine the extent of foliage injury. A rating of 1 indicates no perceptible injury; 5 indicates the plant was dead and ratings of 2, 3 and 4 indicate intermediate degrees of injury based upon the number and extent to which leaves were injured."}, "tomato": {"test_system": "tomato", "experiment": "Phytotoxicity Test, tomato", "type": "in vivo", "design": "key: A rating of 1 indicates no perceptible injury; ratings of 2, 3 and 4 indicate intermediate degrees of injury; ratings of 2, 3 and 4 indicate intermediate degrees of injury; ratings of 2, 3 and 4 indicate intermediate degrees of injury; 5 indicates the plant was dead", "conditions": "ten days", "protocol": "as §1, §2"}, "[1]": {"test_system": "bean aphid (Aphis fabae Scop.)", "experiment": "whole plant or invertebrate", "conditions": "foliar, 24 h, read-out: Insect Toxicity, % Kill at 250 ppm, BA"}, "green beans": {"test_system": "green beans", "experiment": "Phytotoxicity Test, green beans", "type": "in vivo", "design": "key: A rating of 1 indicates no perceptible injury; ratings of 2, 3 and 4 indicate intermediate degrees of injury; ratings of 2, 3 and 4 indicate intermediate degrees of injury; ratings of 2, 3 and 4 indicate intermediate degrees of injury; 5 indicates the plant was dead", "conditions": "ten days", "protocol": "as §1, §2"}, "[2]": {"test_system": "two-spotted mite (Tetranychus urticae Koch)", "experiment": "whole plant or invertebrate", "conditions": "foliar, 144 h, read-out: Insect Toxicity, % Kill at 250 ppm, TSM"}, "[3]": {"test_system": "southern armyworm (Prodenia eridania, (Cram.))", "experiment": "whole plant or invertebrate", "conditions": "Spodoptera eridania, 72 h, read-out: Insect Toxicity, % Kill at 250 ppm, SAW"}, "[4]": {"test_system": "Mexican bean beetle (Epilachna varivestis, Muls.)", "experiment": "whole plant or invertebrate", "conditions": "72 h, read-out: Insect Toxicity, % Kill at 250 ppm, MBB"}, "soybeans": {"test_system": "soybeans", "experiment": "Phytotoxicity Test, soybeans", "type": "in vivo", "design": "key: A rating of 1 indicates no perceptible injury; ratings of 2, 3 and 4 indicate intermediate degrees of injury; ratings of 2, 3 and 4 indicate intermediate degrees of injury; ratings of 2, 3 and 4 indicate intermediate degrees of injury; 5 indicates the plant was dead", "conditions": "ten days", "protocol": "as §1, §2"}, "[5]": {"test_system": "house flies (Musca domestica, L.)", "experiment": "whole plant or invertebrate", "conditions": "po, 24 h, read-out: Insect Toxicity, % Kill at 250 ppm, HF"}, "corn": {"test_system": "corn", "experiment": "Phytotoxicity Test, corn", "type": "in vivo", "design": "key: A rating of 1 indicates no perceptible injury; ratings of 2, 3 and 4 indicate intermediate degrees of injury; ratings of 2, 3 and 4 indicate intermediate degrees of injury; ratings of 2, 3 and 4 indicate intermediate degrees of injury; 5 indicates the plant was dead", "conditions": "ten days", "protocol": "as §1, §2"}}}
{"smiles": "CN(SN1CCOCC1)C(=O)ON=C1CSCCS1", "note": "[Compound 5, 2-N-[N'-Methyl-N'-(4-Morpholinosulfenyl)Carbamoyloxy]imino-1,4-Dithiane]", "values": [{"measurement": "LD50", "setting": "in vivo", "result": 19.8, "unit": "mg/kg"}, {"measurement": "Crop Phytotoxicity, Injury Rating at 2500 ppm, COT.", "setting": "cotton", "result": 1}, {"measurement": "Crop Phytotoxicity, Injury Rating at 2500 ppm, TOM", "setting": "tomato", "result": 1}, {"measurement": "mortality at 250 ppm", "setting": "[1]", "result": 100, "unit": "%"}, {"measurement": "Crop Phytotoxicity, Injury Rating at 2500 ppm, GB", "setting": "green beans", "result": 1}, {"measurement": "mortality at 250 ppm", "setting": "[2]", "result": 100, "unit": "%"}, {"measurement": "mortality at 250 ppm", "setting": "[3]", "result": 100, "unit": "%"}, {"measurement": "mortality at 250 ppm", "setting": "[4]", "result": 100, "unit": "%"}, {"measurement": "Crop Phytotoxicity, Injury Rating at 2500 ppm, SOYBN.", "setting": "soybeans", "result": 1}, {"measurement": "mortality at 250 ppm", "setting": "[5]", "result": 100, "unit": "%"}, {"measurement": "Crop Phytotoxicity, Injury Rating at 2500 ppm, CN", "setting": "corn", "result": 1}]}
{"smiles": "CSC(C)(C)C=NOC(=O)N(C)SN1CCOCC1", "note": "[Compound 6, 2-Methyl-2-(Methylthio)propionaldehyde O-[N-Methyl-N-(4-Morpholinosulfenyl)Carbamoyl]oxime]", "values": [{"measurement": "LD50", "setting": "in vivo", "result": 1.2, "unit": "mg/kg"}, {"measurement": "Crop Phytotoxicity, Injury Rating at 2500 ppm, COT.", "setting": "cotton", "result": 1}, {"measurement": "Crop Phytotoxicity, Injury Rating at 2500 ppm, TOM", "setting": "tomato", "result": 1}, {"measurement": "mortality at 250 ppm", "setting": "[1]", "result": 100, "unit": "%"}, {"measurement": "Crop Phytotoxicity, Injury Rating at 2500 ppm, GB", "setting": "green beans", "result": 1}, {"measurement": "mortality at 250 ppm", "setting": "[2]", "result": 100, "unit": "%"}, {"measurement": "mortality at 250 ppm", "setting": "[3]", "result": 10, "unit": "%"}, {"measurement": "mortality at 250 ppm", "setting": "[4]", "result": 0, "unit": "%"}, {"measurement": "Crop Phytotoxicity, Injury Rating at 2500 ppm, SOYBN.", "setting": "soybeans", "result": 1}, {"measurement": "mortality at 250 ppm", "setting": "[5]", "result": 100, "unit": "%"}, {"measurement": "Crop Phytotoxicity, Injury Rating at 2500 ppm, CN", "setting": "corn", "result": 1}]}
{"smiles": "CC(=NOC(=O)N(C)SN1CCOCC1)SC(C)C", "note": "[Compound 7, S-Isopropyl N-[N'-Methyl-N'-(4-Morpholinosulfenyl)carbamoyloxy]thioacetimidate]", "values": [{"measurement": "LD50", "setting": "in vivo", "result": 28.1, "unit": "mg/kg"}, {"measurement": "Crop Phytotoxicity, Injury Rating at 2500 ppm, COT.", "setting": "cotton", "result": 1}, {"measurement": "Crop Phytotoxicity, Injury Rating at 2500 ppm, TOM", "setting": "tomato", "result": 1}, {"measurement": "mortality at 250 ppm", "setting": "[1]", "result": 100, "unit": "%"}, {"measurement": "Crop Phytotoxicity, Injury Rating at 2500 ppm, GB", "setting": "green beans", "result": 2}, {"measurement": "mortality at 250 ppm", "setting": "[2]", "result": 100, "unit": "%"}, {"measurement": "mortality at 250 ppm", "setting": "[3]", "result": 100, "unit": "%"}, {"measurement": "mortality at 250 ppm", "setting": "[4]", "result": 100, "unit": "%"}, {"measurement": "Crop Phytotoxicity, Injury Rating at 2500 ppm, SOYBN.", "setting": "soybeans", "result": 1}, {"measurement": "mortality at 250 ppm", "setting": "[5]", "result": 100, "unit": "%"}, {"measurement": "Crop Phytotoxicity, Injury Rating at 2500 ppm, CN", "setting": "corn", "result": 1}]}
{"smiles": "CN(SN1CCOCC1)C(=O)ON=CC(C)(C)C#N", "note": "[Compound 10, 2-Cyano-2-Methylpropionaldehyde O-[N-Methyl-N-(4-Morpholinosulfenyl)Carbamoyl]oxime]", "values": [{"measurement": "Crop Phytotoxicity, Injury Rating at 2500 ppm, COT.", "setting": "cotton", "result": 3}, {"measurement": "Crop Phytotoxicity, Injury Rating at 2500 ppm, TOM", "setting": "tomato", "result": 1}, {"measurement": "mortality at 250 ppm", "setting": "[1]", "result": 100, "unit": "%"}, {"measurement": "Crop Phytotoxicity, Injury Rating at 2500 ppm, GB", "setting": "green beans", "result": 1}, {"measurement": "mortality at 250 ppm", "setting": "[2]", "result": 100, "unit": "%"}, {"measurement": "mortality at 250 ppm", "setting": "[3]", "result": 100, "unit": "%"}, {"measurement": "mortality at 250 ppm", "setting": "[4]", "result": 100, "unit": "%"}, {"measurement": "Crop Phytotoxicity, Injury Rating at 2500 ppm, SOYBN.", "setting": "soybeans", "result": 1}, {"measurement": "mortality at 250 ppm", "setting": "[5]", "result": 100, "unit": "%"}, {"measurement": "Crop Phytotoxicity, Injury Rating at 2500 ppm, CN", "setting": "corn", "result": 1}]}
{"smiles": "CSC(C)=NOC(=O)N(SN1CCOCC1)C(C)C", "note": "[Compound 14, S-Methyl-N-[N'-Isopropyl-N'-(4-Morpholinosulfenyl)Carbamoyloxy]Thioacetimidate]", "values": [{"measurement": "Crop Phytotoxicity, Injury Rating at 2500 ppm, COT.", "setting": "cotton", "result": 1}, {"measurement": "Crop Phytotoxicity, Injury Rating at 2500 ppm, TOM", "setting": "tomato", "result": 1}, {"measurement": "mortality at 250 ppm", "setting": "[1]", "result": 100, "unit": "%"}, {"measurement": "Crop Phytotoxicity, Injury Rating at 2500 ppm, GB", "setting": "green beans", "result": 1}, {"measurement": "mortality at 250 ppm", "setting": "[2]", "result": 0, "unit": "%"}, {"measurement": "mortality at 250 ppm", "setting": "[3]", "result": 0, "unit": "%"}, {"measurement": "mortality at 250 ppm", "setting": "[4]", "result": 0, "unit": "%"}, {"measurement": "Crop Phytotoxicity, Injury Rating at 2500 ppm, SOYBN.", "setting": "soybeans", "result": 1}, {"measurement": "mortality at 250 ppm", "setting": "[5]", "result": 0, "unit": "%"}, {"measurement": "Crop Phytotoxicity, Injury Rating at 2500 ppm, CN", "setting": "corn", "result": 1}]}
{"smiles": "CN(SN1CCOCC1)C(=O)ON=C1SCC(=O)NC1(C)C", "note": "[Compound 16, 3,3-Dimethyl-2-N-[N'-Methyl-N'-(4-Morpholinosulfenyl)Carbamoyloxy]imino-5-Oxo-Perhydro-1,4-Thiazine]", "values": [{"measurement": "Crop Phytotoxicity, Injury Rating at 2500 ppm, COT.", "setting": "cotton", "result": 1}, {"measurement": "Crop Phytotoxicity, Injury Rating at 2500 ppm, TOM", "setting": "tomato", "result": 1}, {"measurement": "mortality at 250 ppm", "setting": "[1]", "result": 100, "unit": "%"}, {"measurement": "Crop Phytotoxicity, Injury Rating at 2500 ppm, GB", "setting": "green beans", "result": 1}, {"measurement": "mortality at 250 ppm", "setting": "[2]", "result": 100, "unit": "%"}, {"measurement": "mortality at 250 ppm", "setting": "[3]", "result": 100, "unit": "%"}, {"measurement": "mortality at 250 ppm", "setting": "[4]", "result": 100, "unit": "%"}, {"measurement": "Crop Phytotoxicity, Injury Rating at 2500 ppm, SOYBN.", "setting": "soybeans", "result": 1}, {"measurement": "mortality at 250 ppm", "setting": "[5]", "result": 100, "unit": "%"}, {"measurement": "Crop Phytotoxicity, Injury Rating at 2500 ppm, CN", "setting": "corn", "result": 1}]}
